The values below come from patent publication US9630977B2, “Cephalosporin derivatives and pharmaceutical compositions thereof” (Legochem Biosciences, Inc., priority 2011, dated 2017).

The MIC90 is the lowest concentration that inhibits either 90% of growth or 90% of the strains tested, depending on the study.

The structures appear in SMILES notation. In brackets after ≈: the same amount, converted by molar mass. Like-named read-outs stand apart in the source and are kept apart here. Where only a bound is given, the exact number is not on record here.

Common to all, as to assay: In vitro antibacterial activity test (broth microdilution)
Common to all, as to type: cell-based

In one test the test system is P. aeruginosa 6065Y. As for the experimental part:
(§1) To evaluate antibacterial activity of each of the compounds of Examples 1 to 68, in vitro antibacterial activity test was performed.
(§2) The in vitro antibacterial activity was evaluated by measuring MIC90 (ug/mL) of each of the compounds of Examples 1 to 68, which is defined as the lowest concentration of an antibiotic that will inhibit the visible growth of 90% of microorganisms after incubation as compared with a control group to which the antibiotic is not treated. MIC90 values were measured by the broth microdilution method developed by the Clinical and Laboratory Standards Institute (CLSI) (see CLSI M7-A5, Methods for Dilution Antimicrobial Susceptibility Test for Bacteria that Grow Aerobically-Fifth Edition (2000): CLSI, Villanova, Pa.).
(§3) In vitro antibacterial activity was measured with respect to the following 19 clinical isolates: M. catarrhalis; P. aeruginosa (5 strains); K. pneumoniae (6 strains); A. baumannii (3 strains); E. coli (2 strains); A. calcoaceticus; and E. cloacae.
(§4) Test compounds each (the cephalosporin derivative compounds prepared in Examples 1 to 68) were dissolved in DMSO at the concentration of 10,240 ug/mL, were diluted by two fold with DMSO, and then were diluted by twenty fold with sterilized distilled water. The final concentration in the antibacterial activity test was in the range of […] to 128 ug/mL, and the final concentration of DMSO used as an adjuvant was 2.5% (V/V).

Another test concerns E. coli AG100. As for the experimental part: as §1, §2, §3, §4
A further test relates to P. aeruginosa 43. Conditions: P. aeruginosa 43. The method, then:
as §1, §2, §3, §4

For the next test, the system named is A. baumannii 52. Conditions: A. baumannii 52. The method, then: as §1, §2, §3, §4
The next test has as its system A. baumannii 46. Conditions: A. baumannii 46. As for the experimental part: as §1, §2, §3, §4
The test system of the next test is K. pneumoniae β14. The method, then: as §1, §2, §3, §4
A further test relates to E. coli β4. The method, then: as §1, §2, §3, §4
The subject of the next test is P. aeruginosa 37. The method, then:
as §1, §2, §3, §4

A further test has as its system M. catarrhalis 2524. The note with it: M. catarrhalis 2524. The method, then:
as §1, §2, §3, §4

A further test concerns E. cloacae β19. The method, then:
as §1, §2, §3, §4

The subject of test [1] is A. calcoaceticus ATCC15473. The note with it: A. calcoaceticus ATCC15473. As for the experimental part: as §1, §2, §3, §4
The subject of a further test is A. baumannii 49. The note with it: A. baumannii 49. As for the experimental part:
as §1, §2, §3, §4

A further test concerns P. aeruginosa 1912E. As for the experimental part: as §1, §2, §3, §4
The test system of the next test is P. aeruginosa 40. As for the experimental part: as §1, §2, §3, §4
The test system of a further test is K. pneumoniae 2011E. Conditions: K. pneumoniae 2011E. As for the experimental part: as §1, §2, §3, §4
Where [2] appears, read: Pseudomonas aeruginosa, read-out: MIC90.
The mark [3] stands for this setting: Escherichia coli, AG100, E. coli AG100, read-out: MIC90.
Setting [4] is: Acinetobacter baumannii, read-out: MIC90.
Where [5] appears, read: Klebsiella pneumoniae, read-out: MIC90.
[6] abbreviates: Escherichia coli, read-out: MIC90.
Setting [7] is: Pseudomonas aeruginosa, 37, P. aeruginosa 37, read-out: MIC90.
[8] abbreviates: Moraxella catarrhalis, read-out: MIC90.
[9] abbreviates: Enterobacter cloacae, read-out: MIC90.
Where [10] appears, read: Acinetobacter calcoaceticus, read-out: MIC90.
[11] abbreviates: Pseudomonas aeruginosa, 1912E, read-out: MIC90.
[12] abbreviates: Pseudomonas aeruginosa, 40, P. aeruginosa 40, read-out: MIC90.
The mark [13] stands for this setting: Klebsiella pneumoniae, 2011E, read-out: MIC90.

Regarding `CC(C)(O/N=C(\C(=O)N[C@@H]1C(=O)N2C(C(=O)[O-])=C(C[n+]3cnc(N)c(NC(=O)CNC(=O)c4ccc(O)c(O)c4)c3)CSC12)c1csc(N)n1)C(=O)O` (stereo partly drawn) [Compound 32], the MIC90 in the test with P. aeruginosa 6065Y (setting [2]) was 4 µg/mL (≈ 5.19 µM); with E. coli AG100 (setting [3]), less than 0.0625 µg/mL; with P. aeruginosa 43 (setting [2]), 0.5 µg/mL (≈ 0.649 µM); with A. baumannii 52 (setting [4]), 16 µg/mL (≈ 20.8 µM); with A. baumannii 46 (setting [4]), 1 µg/mL (≈ 1.3 µM); in the test on K. pneumoniae β14 (setting [5]) it was 64 µg/mL (≈ 83 µM). Besides, the MIC90 with E. coli β4 (setting [6]) is 8 µg/mL (≈ 10.4 µM); with P. aeruginosa 37 (setting [7]), 4 µg/mL (≈ 5.19 µM); in the test on M. catarrhalis 2524 (setting [8]) it was 0.25 µg/mL (≈ 0.324 µM); in the test on E. cloacae β19 (setting [9]), 128 µg/mL (≈ 166 µM); in [1] (setting [10]), 0.5 µg/mL (≈ 0.649 µM); in the test on A. baumannii 49 (setting [4]) it was 32 µg/mL (≈ 41.5 µM). Also, the MIC90 in the test with P. aeruginosa 1912E (setting [11]) is 2 µg/mL (≈ 2.59 µM); in the test on P. aeruginosa 40 (setting [12]), 4 µg/mL (≈ 5.19 µM); in the test on K. pneumoniae 2011E (setting [13]) it was 1 µg/mL (≈ 1.3 µM).

As to `CC(C)(O/N=C(\C(=O)N[C@@H]1C(=O)N2C(C(=O)[O-])=C(C[n+]3cnc(N)c(NCCNC(=O)c4ccc(O)c(C(=O)O)c4)c3)CSC12)c1csc(N)n1)C(=O)O` (stereo partly drawn) [Compound 33], the MIC90 with P. aeruginosa 6065Y (setting [2]) was 128 µg/mL (≈ 163 µM); with E. coli AG100 (setting [3]), 16 µg/mL (≈ 20.4 µM); in the test with P. aeruginosa 43 (setting [2]), greater than 128 µg/mL; in the test with A. baumannii 52 (setting [4]), greater than 128 µg/mL; in the test with A. baumannii 46 (setting [4]), 128 µg/mL (≈ 163 µM); in the test on K. pneumoniae β14 (setting [5]), 128 µg/mL (≈ 163 µM). For the same compound, the MIC90 was 64 µg/mL (≈ 81.6 µM) with E. coli β4 (setting [6]); greater than 128 µg/mL with P. aeruginosa 37 (setting [7]); 2 µg/mL (≈ 2.55 µM) in the test with M. catarrhalis 2524 (setting [8]); greater than 128 µg/mL in the test on E. cloacae β19 (setting [9]); 128 µg/mL (≈ 163 µM) in test [1] (setting [10]); greater than 128 µg/mL in the test on A. baumannii 49 (setting [4]). In addition, the MIC90 in the test on P. aeruginosa 1912E (setting [11]) is 64 µg/mL (≈ 81.6 µM); in the test with P. aeruginosa 40 (setting [12]) it was 128 µg/mL (≈ 163 µM); in the test on K. pneumoniae 2011E (setting [13]), 16 µg/mL (≈ 20.4 µM).

Take `C[C@H](O/N=C(\C(=O)N[C@@H]1C(=O)N2C(C(=O)[O-])=C(C[n+]3cnc(N)c(NCCNC(=O)c4ccc(O)c(O)c4)c3)CSC12)c1csc(N)n1)C(=O)O` (stereo partly drawn) [Compound 34]: the MIC90 in the test with P. aeruginosa 6065Y (setting [2]) was 1 µg/mL (≈ 1.35 µM); in the test with E. coli AG100 (setting [3]), less than 0.0625 µg/mL; in the test on P. aeruginosa 43 (setting [2]) it was 0.5 µg/mL (≈ 0.673 µM); in the test with A. baumannii 52 (setting [4]), 128 µg/mL (≈ 172 µM); with A. baumannii 46 (setting [4]), 2 µg/mL (≈ 2.69 µM); in the test on K. pneumoniae β14 (setting [5]), 128 µg/mL (≈ 172 µM). The MIC90 was 1 µg/mL (≈ 1.35 µM) with E. coli β4 (setting [6]); 2 µg/mL (≈ 2.69 µM) with P. aeruginosa 37 (setting [7]); 1 µg/mL (≈ 1.35 µM) in the test with M. catarrhalis 2524 (setting [8]); 16 µg/mL (≈ 21.5 µM) in the test with E. cloacae β19 (setting [9]); 0.5 µg/mL (≈ 0.673 µM) in test [1] (setting [10]); 128 µg/mL (≈ 172 µM) with A. baumannii 49 (setting [4]). For the same compound, the MIC90 in the test with P. aeruginosa 1912E (setting [11]) came out at 32 µg/mL (≈ 43.1 µM); in the test on P. aeruginosa 40 (setting [12]) it was 0.5 µg/mL (≈ 0.673 µM); with K. pneumoniae 2011E (setting [13]), 0.25 µg/mL (≈ 0.337 µM).

Turning to `C[C@H](O/N=C(\C(=O)N[C@@H]1C(=O)N2C(C(=O)[O-])=C(C[n+]3cnc(N)c(NCCNC(=O)c4ccc(O)c(O)c4)c3)CSC12)c1nc(N)sc1Cl)C(=O)O` (stereo partly drawn) [Compound 35], the MIC90 in the test on P. aeruginosa 6065Y (setting [2]) was 2 µg/mL (≈ 2.57 µM); in the test with E. coli AG100 (setting [3]), less than 0.0625 µg/mL; with P. aeruginosa 43 (setting [2]) it was 1 µg/mL (≈ 1.29 µM); in the test with A. baumannii 52 (setting [4]), 2 µg/mL (≈ 2.57 µM); in the test on A. baumannii 46 (setting [4]), 4 µg/mL (≈ 5.15 µM); in the test with K. pneumoniae β14 (setting [5]), 16 µg/mL (≈ 20.6 µM). Also, the MIC90 is 1 µg/mL (≈ 1.29 µM) in the test on E. coli β4 (setting [6]); 0.25 µg/mL (≈ 0.322 µM) with P. aeruginosa 37 (setting [7]); less than 0.0625 µg/mL with M. catarrhalis 2524 (setting [8]); 0.5 µg/mL (≈ 0.643 µM) in the test on E. cloacae β19 (setting [9]); 0.5 µg/mL (≈ 0.643 µM) in test [1] (setting [10]); 4 µg/mL (≈ 5.15 µM) in the test with A. baumannii 49 (setting [4]). Further, the MIC90 with P. aeruginosa 1912E (setting [11]) was 2 µg/mL (≈ 2.57 µM); in the test with P. aeruginosa 40 (setting [12]), 1 µg/mL (≈ 1.29 µM); with K. pneumoniae 2011E (setting [13]), 2 µg/mL (≈ 2.57 µM).

With `CC(C)(ON=C(C(=O)NC1C(=O)N2C(C(=O)[O-])=C(C[n+]3cnc(N)c(NCC=CC(=O)NO)c3)CSC12)c1csc(N)n1)C(=O)O` (stereo not drawn) [Compound 47], the MIC90 in the test on P. aeruginosa 6065Y is 128 µg/mL (≈ 189 µM); against E. coli AG100 (E. coli AG100), greater than 128 µg/mL; in the test with P. aeruginosa 43 it was 128 µg/mL (≈ 189 µM); in the test with A. baumannii 52, 128 µg/mL (≈ 189 µM); against A. baumannii 46 it was 16 µg/mL (≈ 23.6 µM); against K. pneumoniae β14, 32 µg/mL (≈ 47.3 µM). Also, the MIC90 is 16 µg/mL (≈ 23.6 µM) in the test on E. coli β4; 64 µg/mL (≈ 94.6 µM) against P. aeruginosa 37 (P. aeruginosa 37); 0.25 µg/mL (≈ 0.369 µM) in the test with M. catarrhalis 2524; 128 µg/mL (≈ 189 µM) against E. cloacae β19; 8 µg/mL (≈ 11.8 µM) in test [1]; greater than 128 µg/mL in the test with A. baumannii 49. Further, the MIC90 was 8 µg/mL (≈ 11.8 µM) in the test on P. aeruginosa 1912E, 32 µg/mL (≈ 47.3 µM) against P. aeruginosa 40 (P. aeruginosa 40) and 4 µg/mL (≈ 5.91 µM) with K. pneumoniae 2011E.
